These are literature values, as cited in US20110217337A1, “BIOACTIVE AGENT FOR BONE TISSUE ENGINEERING” (UNIVERSITY OF CONNECTICUT, priority 2010, published 2011).

For one data set, the system named is osteoblast. The following applies: cited from earlier work.
The next data set deals with bone formation. The conditions noted are these: via the PKA pathway; cited from earlier work.
For another data set, the system named is cAMP receptors. The conditions noted are these: in vivo; cited from earlier work.
In another data set the test system is cell proliferation. The conditions noted are these: cited from earlier work.
The test system of another data set is osteogenesis. The conditions noted are these: via the PKA pathway; cited from earlier work.

For `Nc1ncnc2c1nc(Br)n2[C@@H]1O[C@@H]2COP(=O)(O)O[C@H]2[C@H]1O` [8-Br-cAMP], the osteoblast proliferation entry in the data set on osteoblast is reported as “inhibits osteoblast proliferation”.
Consider `CCCC(=O)Nc1ncnc2c1ncn2[C@@H]1O[C@@H]2COP(=O)(O)O[C@H]2[C@H]1OC(=O)CCC` [db-cAMP, N^6,2′-O-dibutyryladenosine-3′,5′-cyclic monophosphate], for which, in the data set with bone formation, the “in vivo bone formation” value is on record as “enhances”. Further, the “activation of cAMP receptors” value in the data set on cAMP receptors is “activate all cAMP receptors non-specifically”. Also, the cell proliferation result with cell proliferation is reported as “inhibit cell proliferation”. Moreover, the in vitro osteogenesis result in the data set with osteogenesis is “enhances”.
